Source: the SangsterLogP compilation

Compound | logP
NC12CCC(CO)CC1Cc1ccccc12 (stereo not given) | 0.93
CNC12CCCCC1c1ccccc1C2 (stereo not given) | 3.43
NC12CCCC1Cc1ccccc12 (stereo not given) | 2.58
CNC12CCCCC1Cc1ccc(OC)cc12 (stereo not given) | 3.54
NC12CCCCC1c1ccccc1C2 (stereo not given) | 2.94
CNCC1CCC2(NC)c3ccccc3CC2C1 (stereo not given) | 2.48
CNC12CC=CCC1c1ccccc1C2 (stereo not given) | 3.28
CNC12c3ccccc3CC1CCCC2C (stereo not given) | 3.44
CNC12CCCCC1Cc1ccccc12 (stereo not given) | 3.37

Other lines, results leading:

logP | Compound
3.8 | CCNC12c3ccccc3CC1CCCC2C (stereo not given)
3.51 | CNC12CCCCC1Cc1cc(OC)ccc12 (stereo not given)
1.41 | CNC12CCC(CO)CC1Cc1ccccc12 (stereo not given)
1.84 | CNC12CCC(CN)CC1Cc1ccccc12 (stereo not given)
3.79 | C=C1c2ccccc2C2(NC)CCCCC12 (stereo not given)
3.77 | CNC12CCCCCC1Cc1ccccc12 (stereo not given)
